The text below walks through data of US8450317B2, “CXCR3 receptor antagonists” (Boehringer Ingelheim International GmbH, priority 2009, dated 2013).

For the test, the target named is CXCR3 (Macaca fascicularis, UniProt A0A2K5UV19). The test is described as follows: functional cellular assay measuring calcium flux in CXCR3 transfected cells (block of CXCR3/IP-10 interaction). The format is cell-based, Cyno. The conditions noted are these: IP-10 induced intracellular calcium flux; Cyno-CHO cells stably expressing recombinant CXCR3 and G-alpha-16; IP-10 at EC80; read-out: IC50. Summed up:
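Cyno-CHO cells stably expressing CXCR3 and G-alpha-16, loaded with Ca-4 dye in HBSS/10 mM HEPES pH 7.4 with 2 mM probenecid for 1 h at 37° C. Compound (final 10 microM) preincubated 15 min at room temperature, then IP-10 at EC80 added; calcium flux read at 480/540 nm.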

CXCR3, sequence (A0A2K5UV19 entry or part of it): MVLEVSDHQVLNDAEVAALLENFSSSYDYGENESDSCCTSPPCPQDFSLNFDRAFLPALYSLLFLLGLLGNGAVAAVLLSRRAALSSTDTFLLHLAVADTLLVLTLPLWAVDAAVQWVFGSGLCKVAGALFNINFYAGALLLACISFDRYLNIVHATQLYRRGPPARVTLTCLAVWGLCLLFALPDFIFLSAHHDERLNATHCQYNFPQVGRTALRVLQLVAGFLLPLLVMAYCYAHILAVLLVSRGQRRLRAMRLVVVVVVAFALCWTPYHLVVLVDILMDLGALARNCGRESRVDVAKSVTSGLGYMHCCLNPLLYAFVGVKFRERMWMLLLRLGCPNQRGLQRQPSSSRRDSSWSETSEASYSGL

For the molecule `Cc1cc(C)n(CC(=O)N2CCN(c3ccccc3-c3cnc(N4C[C@@H]5C[C@H]4CO5)nc3)CC2)n1` [2-(3,5-Dimethyl-pyrazol-1-yl)-1-(4-{2-[(1S,4S)-2-(2-oxa-5-aza-bicyclo[2.2.1]hept-5-yl)-pyrimidin-5-yl]-phenyl}-piperazin-1-yl)-ethanone], the concentration for half-maximal inhibition (IC50) came to 14 nM.

`CC1CN(c2ccccc2-c2cnc(N3CCC(O)CC3)nc2)CCN1C(=O)Cn1ccc2ccncc21` (stereo not shown) [1-(4-{2-[2-(4-hydroxypiperidin-1-yl)pyrimidin-5-yl]phenyl}-2-methylpiperazin-1-yl)-2-(1H-pyrrolo[2,3-c]pyridin-1-yl)ethanone]: the concentration for half-maximal inhibition (IC50) came out at 8 nM. For `COc1ncc(-c2cc(C(F)(F)F)ccc2N2CCN(C(=O)Cn3ccc4cccnc43)CC2)cn1` [1-{4-[2-(2-Methoxy-pyrimidin-5-yl)-4-trifluoromethyl-phenyl]-piperazin-1-yl}-2-pyrrolo[2,3-b]pyridin-1-yl-ethanone] the value was 8 nM; for `Cc1cc(C)n(CC(=O)N2CCN(c3ccccc3-c3cnc(N4CCCC(F)(F)C4)nc3)CC2)n1` [1-(4-{2-[2-(3,3-Difluoro-piperidin-1-yl)-pyrimidin-5-yl]-phenyl}-piperazin-1-yl)-2-(3,5-dimethyl-pyrazol-1-yl)-ethanone], 9 nM.

`CC1CN(c2ccccc2-c2cnc(N3CCC(S(C)(=O)=O)CC3)nc2)CCN1C(=O)CN1CCCCC1=O` (stereo not shown) [1-{2-[2-methyl-4-(2-{2-[4-(methylsulfonyl)piperidin-1-yl]pyrimidin-5-yl}phenyl)piperazin-1-yl]-2-oxoethyl}piperidin-2-one]: the IC50 worked out at 34 nM. For `Cc1cc(C)n(CC(=O)N2CCN(c3ccc(C(F)(F)F)cc3-c3cnc(S(C)(=O)=O)nc3)CC2)n1` [2-(3,5-Dimethyl-pyrazol-1-yl)-1-{4-[2-(2-methanesulfonyl-pyrimidin-5-yl)-4-trifluoromethyl-phenyl]-piperazin-1-yl}-ethanone] the value was 54 nM; for `Cc1cc(C)n(CC(=O)N2CCN(c3ccccc3-c3ccc4ccn(C)c4c3)CC2)n1` [2-(3,5-Dimethyl-pyrazol-1-yl)-1-{4-[2-(1-methyl-1H-indol-6-yl)-phenyl]-piperazin-1-yl}-ethanone], 19 nM; for `O=C(Cn1ccc2cccnc21)N1CCN(c2c(F)cccc2-c2cnc(N3CCOCC3)nc2)CC1` [1-{4-[2-Fluoro-6-(2-morpholin-4-yl-pyrimidin-5-yl)-phenyl]-piperazin-1-yl}-2-pyrrolo[2,3-b]pyridin-1-yl-ethanone], 27 nM. The value for `C[C@@H]1CN(c2ncc(-c3ccccc3N3CCN(C(=O)Cn4ccc5cccnc54)CC3)cn2)C[C@@H](C)O1` [1-(4-{2-[2-((2R,6R)-2,6-Dimethyl-morpholin-4-yl)-pyrimidin-5-yl]-phenyl}-piperazin-1-yl)-2-pyrrolo[2,3-b]pyridin-1-yl-ethanone] was 7 nM. The value for `Cc1cc(C)n(CC(=O)N2CCN(c3ccccc3-c3cnc(N4CCC(C(N)=O)CC4)nc3)CC2)n1` [1-[5-(2-{4-[2-(3,5-Dimethyl-pyrazol-1-yl)-acetyl]-piperazin-1-yl}-phenyl)-pyrimidin-2-yl]-piperidine-4-carboxylic acid amide] was 6 nM. With `O=C(Cn1ccc2cccnc21)N1CCN(c2ccccc2-c2ccc(Cl)nc2)CC1` [1-{4-[2-(6-Chloro-pyridin-3-yl)-phenyl]-piperazin-1-yl}-2-pyrrolo[2,3-b]pyridin-1-yl-ethanone], the half-maximal inhibitory concentration (IC50) was 31 nM. With `Cc1cc(C)n(CC(=O)N2CCN(c3ccc(F)cc3C(=O)Nc3nc4c(s3)CN(C)CC4)C[C@H]2C)n1` [2-{(3R)-4-[(3,5-dimethyl-1H-pyrazol-1-yl)acetyl]-3-methylpiperazin-1-yl}-5-fluoro-N-(5-methyl-4,5,6,7-tetrahydro[1,3]thiazolo[5,4-c]pyridin-2-yl)benzamide], the IC50 worked out at 15 nM.

Take `O=C(Cn1ccc2cccnc21)N1CC=C(c2ccccc2-c2cnc(N3CCOCC3)nc2)CC1` [1-{4-[2-(2-Morpholin-4-yl-pyrimidin-5-yl)-phenyl]-3,6-dihydro-2H-pyridin-1-yl}-2-pyrrolo[2,3-b]pyridin-1-yl-ethanone]: the IC50 was 20 nM. For `COc1cc(NC(=O)c2cc(F)ccc2N2CCN(C(=O)Cn3c(=O)[nH]c4ccccc43)[C@@H](C)C2)ccn1` [5-fluoro-N-(2-methoxypyridin-4-yl)-2-{(3S)-3-methyl-4-[(2-oxo-2,3-dihydro-1H-benzimidazol-1-yl)acetyl]piperazin-1-yl}benzamide] the value was 9 nM; for `CC1CN(c2ccc(F)cc2-c2cnc(N3CCC(S(C)(=O)=O)CC3)nc2)CCN1C(=O)CN1Cc2ccccc2C1=O` (stereo not shown) [2-{2-[4-(4-fluoro-2-{2-[4-(methylsulfonyl)piperidin-1-yl]pyrimidin-5-yl}phenyl)-2-methylpiperazin-1-yl]-2-oxoethyl}-2,3-dihydro-1H-isoindol-1-one], 10 nM. For `CSc1ncc(-c2cc(Cl)ccc2N2CCN(C(=O)Cn3nc(C)cc3C)CC2)cn1` [1-{4-[4-Chloro-2-(2-methylsulfanyl-pyrimidin-5-yl)-phenyl]-piperazin-1-yl}-2-(3,5-dimethyl-pyrazol-1-yl)-ethanone] the value was 7 nM; for `Cc1cc(C)n(CC(=O)N2CCN(c3ccccc3-c3cnc(N4CC[C@@H](N(C)C)C4)nc3)CC2)n1` [1-(4-{2-[2-((R)-3-Dimethylamino-pyrrolidin-1-yl)-pyrimidin-5-yl]-phenyl}-piperazin-1-yl)-2-(3,5-dimethyl-pyrazol-1-yl)-ethanone], 4 nM.

As for `O=C(CNc1nccs1)N1CCN(c2ccccc2-c2cnc(N3CCOCC3)nc2)CC1` [1-{4-[2-(2-Morpholin-4-yl-pyrimidin-5-yl)-phenyl]-piperazin-1-yl}-2-(thiazol-2-ylamino)-ethanone], the IC50 was determined as 35 nM. Turning to `C[C@@H]1CN(c2ccc(F)cc2C(=O)Nc2nc3c(s2)CN(C)CC3)CCN1C(=O)CN1Cc2ccccc2C1=O` [5-fluoro-2-{(3R)-3-methyl-4-[(1-oxo-1,3-dihydro-2H-isoindol-2-yl)acetyl]piperazin-1-yl}-N-(5-methyl-4,5,6,7-tetrahydro[1,3]thiazolo[5,4-c]pyridin-2-yl)benzamide], the IC50 is 15 nM. For `O=C(Cn1ccc2cccnc21)N1CCN(c2ccc(F)cc2-c2cnc(N3CCOCC3)nc2)CC1` [1-(4-{4-fluoro-2-[2-(morpholin-4-yl)pyrimidin-5-yl]phenyl}piperazin-1-yl)-2-(1H-pyrrolo[2,3-b]pyridin-1-yl)ethanone], the IC50 came out at 14 nM. For `CC1CN(c2ccccc2-c2cnc(N3CCC(O)CC3)nc2)CCN1C(=O)Cn1c(=O)[nH]c2ccccc21` (stereo not shown) [1-[2-(4-{2-[2-(4-hydroxypiperidin-1-yl)pyrimidin-5-yl]phenyl}-2-methylpiperazin-1-yl)-2-oxoethyl]-1,3-dihydro-2H-benzimidazol-2-one], the IC50 is 8 nM. The value for `Cc1cc(C)n(CC(=O)N2CCN(c3ccc(C(F)(F)F)cc3-c3cnc(N4CCC(S(C)(=O)=O)CC4)nc3)CC2C)n1` (stereo not shown) [2-(3,5-dimethyl-1H-pyrazol-1-yl)-1-{2-methyl-4-[2-{2-[4-(methylsulfonyl)piperidin-1-yl]pyrimidin-5-yl}-4-(trifluoromethyl)phenyl]piperazin-1-yl}ethanone] was 7 nM.
